Measured values reported in patent US20230242582A1, “NOVEL ALPHA-HELICAL DOUBLE-SIDED CELL PENETRATING PEPTIDE AND USE THEREOF” (CAMP THERAPEUTICS INC., priority 2020, published 2023).
Where two headings read alike, the source gives them in different places. One block for each compound: values may come before it. Residues, ends and D or L forms follow the SMILES beside them.

What was measured:
NIH-3T3 = experiment: IC50 of MTX in cell line NIH-3T3; format: cell-based; settings: Mus musculus, NIH3T3
HeLa = experiment: IC50 of MTX in cell line HeLa; format: cell-based; settings: Homo sapiens
MDA-MB-231 cells = experiment: Cytotoxicity of MTX-bound peptide, WST-1 assay; format: cell-based
Experimental: (§1) Specifically, HeLa cells were cultured in DMEM at a condition of 37° C. with 5% CO2. The cells were respectively cultured in a cell culture plate, and then removed with trypsin. The cells were seeded at 1×10^4 cells per well in a 96-well plate. After 24 hours, the peptide was added to the media, and culture was performed again at a condition of 37° C. with 5% CO2 for 24 hours. 10 uL of WST-1 reagent was added per well, and reaction was allowed to proceed for 30 minutes at a condition of 37° C. with 5% CO2. Then, UV absorbance was measured at 450/700 nm with a 96-well plate reader.
In order to identify a drug delivery effect of a peptide, a peptide in which methotrexate (MTX) is bound to the N-terminus of one monomer of a dimer was synthesized according to a known method (Kim et al. Biomacromolecules 2016).
MDA-MB-231 cells were seeded in a 96-well plate at a density of 2.5×10^3 cells/well, and treated with the MTX-bound peptide for 48 hours starting from the next day.

MDA-MB-231 = experiment: IC50 of MTX in cell line MDA-MB-231; format: cell-based; settings: Homo sapiens
[1] = Intracellular delivery of CsA with fluorescence by non-covalent bonding with peptide; format: cell-based; settings: FIG. 8
From the text: For the peptides with various compositions of lysine and arginine, their intracellular delivery by non-covalent bonding with CsA was identified using CsA with fluorescence.

HeLa cells [2] = experiment: Cytotoxicity of dimeric peptides, WST-1 assay; format: cell-based, human; settings: for ratio: IC50 relative to LK-3, HeLa cells
Experimental: Cytotoxicity was identified using WST-1 assay by treating HeLa cells with peptides in a 96-well plate (1×10^4 cells/well) for 24 hours.
as §1

HeLa cells [3] = experiment: Cell-penetrating ability of fluorescently labeled dimeric peptides, flow cytometry; format: cell-based, human; settings: at 62.5 nM, FIG. 6A
Experimental: During preparation of CPPs in dimeric form shown in Tables 1 to 3, one monomer thereof was prepared in a form where 5-TAMRA fluorescence was attached to the N-terminus, instead of acetyl. A monomer with acetyl and a monomer with 5-TAMRA fluorescence were mixed in a molar ratio of 1:1, and subjected to an oxidation condition in air to produce a dimeric form in which only one fluorescence was labeled per dimer molecule. Then, cell-penetrating ability of each dimer was identified. Each fluorescently labeled peptide was used to treat HeLa cells (5×10^4 cells/well), which are human-derived cells, and a ratio of the number of cells with fluorescence to the total number of cells was obtained through flow cytometry.
FIGS. 4B to 4D illustrate results obtained by treating cells with respective dimers at the same concentration (62.5 nM), measuring fluorescence intensity of the cells by flow cytometry, and relatively comparing the fluorescence intensity.
Based on cell-penetrating ability and cytotoxicity of the dimeric peptides of the present disclosure, correlation therebetween was identified. Cytotoxicity (IC50^−1) and cell-penetrating ability of the respective peptides were identified at 62.5 nM according to the methods described in Examples 5 and 6, and then graphically represented.

IL-2 = experiment: Decrease of extracellularly secreted IL-2 in Jurkat cells, ELISA; format: cell-based; settings: CsA complex with diLR10 versus CsA only
Experimental: The hydrophobic drug cyclosporine (CsA) was mixed with a peptide and incubated at room temperature for 20 minutes to create a complex with the hydrophobic drug. Then, Jurkat cells (1.0×10^4 cells/well) were treated with the complex for 4.5 hours. An amount of extracellularly secreted IL-2 was measured by an ELISA method to identify, through IC50 values, whether an anti-inflammatory effect caused by CsA, which corresponded to a relative decrease in IL-2, was enhanced by the cell-penetrating peptide diLR10.

IC50 (HeLa): ~31 nM
IC50 (MDA-MB-231): 970 nM
Compound: CN(Cc1cnc2nc(N)nc(N)c2n1)c1ccc(C(=O)N[C@@H](CCC(=O)O)C(=O)O)cc1 [MTX, methotrexate]
IC50 (NIH-3T3): 37 nM
IC50 (MDA-MB-231 cells; Homo sapiens, 48 hours, MTX bound to N-terminus of one monomer of the dimer, MTX column = MTX alone, read-out: IC50 of MTX-bound peptide): 972 nM

Compound: diLR10^R3K: dimer of monomer LR10^R3K, Ac-LCKLLRRLCR-NH2 (SEQ ID NO 30) (also: dimer of two monomers linked by interchain disulfide bonds)
intracellular delivery ability for CsA [1]: best intracellular delivery ability for CsA

Compound: CC(=O)N[C@@H](CC(C)C)C(=O)N[C@H]1CSSC[C@@H](C(=O)N[C@@H](CCCCN)C(N)=O)NC(=O)[C@H](CC(C)C)NC(=O)[C@H](CCCCN)NC(=O)[C@H](CCCCN)NC(=O)[C@H](CC(C)C)NC(=O)[C@H](CC(C)C)NC(=O)[C@H](CCCCN)NC(=O)[C@@H](NC(=O)[C@H](CC(C)C)NC(C)=O)CSSC[C@@H](C(=O)N[C@@H](CCCCN)C(N)=O)NC(=O)[C@H](CC(C)C)NC(=O)[C@H](CCCCN)NC(=O)[C@H](CCCCN)NC(=O)[C@H](CC(C)C)NC(=O)[C@H](CC(C)C)NC(=O)[C@H](CCCCN)NC1=O [diLK10] (HELM PEPTIDE1{[ac].L.C.K.L.L.K.K.L.C.K.[am]}|PEPTIDE2{[ac].L.C.K.L.L.K.K.L.C.K.[am]}$PEPTIDE1,PEPTIDE2,3:R3-10:R3|PEPTIDE1,PEPTIDE2,10:R3-3:R3$$$V2.0)
IC50 (MDA-MB-231 cells; 48 hours, MTX bound to N-terminus of one monomer of the dimer, MTX column = MTX alone, read-out: IC50 of MTX-bound peptide): 45.9 nM
IC50 (MDA-MB-231 cells; peptide itself, without MTX, read-out: IC50): ~13700 nM
IC50 (HeLa cells [2]; HeLa cells, WST-1, peptide treatment 24 hours): 12400 nM
ratio (HeLa cells [2]): 2.79

decrease of IC50 value (IL-2): 21%
Compound: CC(=O)N[C@@H](CC(C)C)C(=O)N[C@H]1CSSC[C@@H](C(=O)N[C@@H](CCCNC(=N)N)C(N)=O)NC(=O)[C@H](CC(C)C)NC(=O)[C@H](CCCNC(=N)N)NC(=O)[C@H](CCCNC(=N)N)NC(=O)[C@H](CC(C)C)NC(=O)[C@H](CC(C)C)NC(=O)[C@H](CCCNC(=N)N)NC(=O)[C@@H](NC(=O)[C@H](CC(C)C)NC(C)=O)CSSC[C@@H](C(=O)N[C@@H](CCCNC(=N)N)C(N)=O)NC(=O)[C@H](CC(C)C)NC(=O)[C@H](CCCNC(=N)N)NC(=O)[C@H](CCCNC(=N)N)NC(=O)[C@H](CC(C)C)NC(=O)[C@H](CC(C)C)NC(=O)[C@H](CCCNC(=N)N)NC1=O [diLR10] (HELM PEPTIDE1{[ac].L.C.R.L.L.R.R.L.C.R.[am]}|PEPTIDE2{[ac].L.C.R.L.L.R.R.L.C.R.[am]}$PEPTIDE1,PEPTIDE2,3:R3-10:R3|PEPTIDE1,PEPTIDE2,10:R3-3:R3$$$V2.0; bridges inferred)
ratio of cell-penetrating ability to cytotoxicity (IC50^−1) (HeLa cells [3]): low toxicity as compared with cell-penetrating ability
increase in IC50 value as compared with LK-3 (HeLa cells [2]; HeLa cells): about 5 fold
ratio (HeLa cells [2]): 4.26

Compound: CC(=O)N[C@@H](Cc1ccccc1)C(=O)N[C@H]1CSSC[C@@H](C(=O)N[C@@H](CCCNC(=N)N)C(N)=O)NC(=O)[C@H](Cc2ccccc2)NC(=O)[C@H](CCCNC(=N)N)NC(=O)[C@H](CCCNC(=N)N)NC(=O)[C@H](Cc2ccccc2)NC(=O)[C@H](Cc2ccccc2)NC(=O)[C@H](CCCNC(=N)N)NC(=O)[C@@H](NC(=O)[C@H](Cc2ccccc2)NC(C)=O)CSSC[C@@H](C(=O)N[C@@H](CCCNC(=N)N)C(N)=O)NC(=O)[C@H](Cc2ccccc2)NC(=O)[C@H](CCCNC(=N)N)NC(=O)[C@H](CCCNC(=N)N)NC(=O)[C@H](Cc2ccccc2)NC(=O)[C@H](Cc2ccccc2)NC(=O)[C@H](CCCNC(=N)N)NC1=O [diFR10] (HELM PEPTIDE1{[ac].F.C.R.F.F.R.R.F.C.R.[am]}|PEPTIDE2{[ac].F.C.R.F.F.R.R.F.C.R.[am]}$PEPTIDE1,PEPTIDE2,3:R3-10:R3|PEPTIDE1,PEPTIDE2,10:R3-3:R3$$$V2.0; bridges inferred)
ratio of cell-penetrating ability to cytotoxicity (IC50^−1) (HeLa cells [3]): low toxicity as compared with cell-penetrating ability
ratio (HeLa cells [2]): 4.10
